Literature values in US20110091459A1, “IMIDAZOLE MODULATORS OF MUSCARINIC ACETYLCHOLINE RECEPTOR M3” (AUSPEX PHARMACEUTICALS, INC., priority 2008, published 2011).

Key:
[1] = metabolite formed by CYP2A6 mediated hydroxylation of the lactone ring
[2] = in vivo
[3] = in vivo; remark: listed apart in the source

Row | Structure (SMILES) | pharmacological activity [1] | half-life [2] | adverse effects [3]
1 | CC[C@@]1(O)C(=O)OC[C@H]1Cc1cncn1C [3-hydroxypilocarpine] | pharmacologically inactive | – | –
2 | CC[C@@H]1C(=O)OC[C@@H]1Cc1cncn1C [Pilocarpine, (3S,4R)-3-ethyl-4-((1-methyl-1H-imidazol-5-yl)methyl)dihydrofuran-2(3H)-one] | – | 45.6 to 81 min | blurred vision, nightblindness, and pulmonary edema
